Test results reported in EP1066315B1 (University of Dundee, priority 1998, dated 2008).
Residues, ends and D or L forms follow the SMILES beside them. *: point of attachment. Fmoc = O=C(OCC1c2ccccc2-c2ccccc21)*

Legend:
[1] = tested on: purified AEP (legumain from pig kidney); assay: Digestion of TTCF with purified AEP in the presence of tetrapeptides; format: biochemical; conditions: 0.2 mg/ml peptide; Fig 3a
Procedure: The invention will now be described by reference to the following Examples and Figures wherein • Figure 1: Processing of TTCF by a leupeptin-insensitive cysteine endopeptidase activity. (a) TTCF was digested in vitro in the presence of disrupted lysosomes (1-2 µg) in the presence or absence of iodoacetamide (1 mM), leupeptin, E64 or pepstatin (each at 0.1 mg/ml). Digestions were in 0.1 M NH4 acetate at pH 4.5 or Na2HPO4, pH 6.0 or 7.0. After 4 hours at 37°C, the reactions were separated by Tris-tricine SDS-PAGE and stained with Coomassie Blue. (b) Cleavage sites: TTCF digestion products were separated by SDS PAGE and electrophoretically transferred to nitrocellulose membrane. Individual fragments numbered 1-6 were subjected to 5 cycles of Edman degradation. N-terminal sequence obtained is shown in bold following upstream residues from TTCF (tetanus toxin numbering). The N-terminal sequence of His-tagged TTCF was obtained for fragments 1 and 3. (c) Residues Asn 1184 and Glu 1184 in TTCF were mutated to alanine (see Methods) and digestions performed as before. The mutation abolishes cleavage at the mutated site but not at the first site (doublet at 47 kD). In this experiment cleavage of the third site was minimal. • Figure 2: TTCF is processed by an asparaginyl endopeptidase. (a) Chromatography of the TTCF processing activity on Mono-S resin. Fractions eluted by NaCl gradient were incubated with the substrates Z-Ala-Ala-Asn-NHMec or Z-Phe-Arg-NHMec in the presence or absence of E64 (trans-epoxysuccinyl-L-leucylamido-(4-guanidino)butane). […] (b) Fractions as above were incubated with 10 µg TTCF in the presence or absence of E64 for 4 hours at 37°C prior to SDS-PAGE analysis. (c) Each fraction was analysed by SDS-PAGE and Western blotting. Electrophoretically transferred material was probed with an affinity purified antiserum raised against the peptide KGIGSGKVLKSGPQC from human legumain^1. • Figure 3: Peptide inhibitors of AEP block asparaginyl endopeptidase activity and TTCF processing in vitro and in vivo. […] Release of 7-amino-4-methyl coumarin was measured after 10, 20 or 30 minutes. […] At different times the cells were washed, fixed in 0.05 % glutaraldehyde and antigen presentation measured using proliferation of different autologous TTCF-specific T cell clones. c, AEP pre-processing of TTCF speeds antigen presentation. […] Presentation was measured after 60 minutes of antigen pulsing using EBV B cells.
We decided to test the possibility that high concentrations of asparagine containing peptides might act as competitive inhibitors. […] To establish that inhibition of AEP was specific, we measured the hydrolysis of different synthetic peptide substrates in the presence and absence of these tetrapeptides.

[2] = tested on: peripheral blood mononuclear cells (PBMC) / autologous TTCF specific T cell clones; assay: TTCF antigen presentation by PBMC, read out as proliferation of autologous T cell clones; format: cell-based, human; conditions: PBMC, 1 mg/ml peptide, between 30 and 60 minutes of antigen pulsing; Fig 9a
Procedure: The invention will now be described by reference to the following Examples and Figures wherein • Figure 1: Processing of TTCF by a leupeptin-insensitive cysteine endopeptidase activity. (a) TTCF was digested in vitro in the presence of disrupted lysosomes (1-2 µg) in the presence or absence of iodoacetamide (1 mM), leupeptin, E64 or pepstatin (each at 0.1 mg/ml). Digestions were in 0.1 M NH4 acetate at pH 4.5 or Na2HPO4, pH 6.0 or 7.0. After 4 hours at 37°C, the reactions were separated by Tris-tricine SDS-PAGE and stained with Coomassie Blue. (b) Cleavage sites: TTCF digestion products were separated by SDS PAGE and electrophoretically transferred to nitrocellulose membrane. Individual fragments numbered 1-6 were subjected to 5 cycles of Edman degradation. N-terminal sequence obtained is shown in bold following upstream residues from TTCF (tetanus toxin numbering). The N-terminal sequence of His-tagged TTCF was obtained for fragments 1 and 3. (c) Residues Asn 1184 and Glu 1184 in TTCF were mutated to alanine (see Methods) and digestions performed as before. The mutation abolishes cleavage at the mutated site but not at the first site (doublet at 47 kD). In this experiment cleavage of the third site was minimal. • Figure 2: TTCF is processed by an asparaginyl endopeptidase. (a) Chromatography of the TTCF processing activity on Mono-S resin. Fractions eluted by NaCl gradient were incubated with the substrates Z-Ala-Ala-Asn-NHMec or Z-Phe-Arg-NHMec in the presence or absence of E64 (trans-epoxysuccinyl-L-leucylamido-(4-guanidino)butane). […] (b) Fractions as above were incubated with 10 µg TTCF in the presence or absence of E64 for 4 hours at 37°C prior to SDS-PAGE analysis. (c) Each fraction was analysed by SDS-PAGE and Western blotting. Electrophoretically transferred material was probed with an affinity purified antiserum raised against the peptide KGIGSGKVLKSGPQC from human legumain^1. • Figure 3: Peptide inhibitors of AEP block asparaginyl endopeptidase activity and TTCF processing in vitro and in vivo. (a) TTCF was digested with purified AEP (legumain from pig kidney) in the presence or absence of 0.2 mg/ml of the peptides indicated. […] (b) Purified AEP or a crude lysosomal protease mixture were incubated with Z-Ala-Ala-Asn-NHMec, Z-Phe-Arg-NHMec (cathepsins L&B) or Z-Val-Val-Ala NHMec (cathepsin S) in the presence of increasing concentrations of AENK or AEQK. Release of 7-amino-4-methyl coumarin was measured after 10, 20 or 30 minutes. […] At different times the cells were washed, fixed in 0.05 % glutaraldehyde and co-cultured with autologous TTCF specific T cell clones. […] Proteins obtained from commercial sources, as described in the literature or custom peptides were digested with purified pig kidney legumain at pH 5.5 in the presence of 1 mM DTT. […] When present peptide was maintained during antigen pulsing at 1 mg/ml (a) or 2 mg/ml (b). At different times the cells were washed, fixed in 0.05 % glutaraldehyde and antigen presentation measured using proliferation of different autologous TTCF-specific T cell clones. c, AEP pre-processing of TTCF speeds antigen presentation. […] Presentation was measured after 60 minutes of antigen pulsing using EBV B cells.
If AEP plays a role in TTCF processing in antigen presenting cells then sufficiently high levels of the competing AENK peptide might be expected to interfere with normal class II MHC loading of TTCF epitopes. Following a 15 minute preincubation with or without tetrapeptides, freshly isolated peripheral blood mononuclear cells (PBMC) were incubated with TTCF antigen in the continued presence or absence of the peptides. At different times, the cells were washed, fixed and then co-cultured with different autologous T cell clones to assess expression of different peptide/MHC complexes. […] At later times there was some recovery of presentation of these epitopes as expected for a competitive inhibitor. […]

[3] = tested on: EBV-transformed B cells / autologous TTCF-specific T cell clones; assay: TTCF antigen presentation by EBV-transformed B cells, read out as proliferation of autologous T cell clones; format: cell-based, human; conditions: EBV-B cells from donor, 2 mg/ml peptide; Fig 9b
Procedure: The invention will now be described by reference to the following Examples and Figures wherein • Figure 1: Processing of TTCF by a leupeptin-insensitive cysteine endopeptidase activity. (a) TTCF was digested in vitro in the presence of disrupted lysosomes (1-2 µg) in the presence or absence of iodoacetamide (1 mM), leupeptin, E64 or pepstatin (each at 0.1 mg/ml). Digestions were in 0.1 M NH4 acetate at pH 4.5 or Na2HPO4, pH 6.0 or 7.0. After 4 hours at 37°C, the reactions were separated by Tris-tricine SDS-PAGE and stained with Coomassie Blue. (b) Cleavage sites: TTCF digestion products were separated by SDS PAGE and electrophoretically transferred to nitrocellulose membrane. Individual fragments numbered 1-6 were subjected to 5 cycles of Edman degradation. N-terminal sequence obtained is shown in bold following upstream residues from TTCF (tetanus toxin numbering). The N-terminal sequence of His-tagged TTCF was obtained for fragments 1 and 3. (c) Residues Asn 1184 and Glu 1184 in TTCF were mutated to alanine (see Methods) and digestions performed as before. The mutation abolishes cleavage at the mutated site but not at the first site (doublet at 47 kD). In this experiment cleavage of the third site was minimal. • Figure 2: TTCF is processed by an asparaginyl endopeptidase. (a) Chromatography of the TTCF processing activity on Mono-S resin. Fractions eluted by NaCl gradient were incubated with the substrates Z-Ala-Ala-Asn-NHMec or Z-Phe-Arg-NHMec in the presence or absence of E64 (trans-epoxysuccinyl-L-leucylamido-(4-guanidino)butane). […] (c) Each fraction was analysed by SDS-PAGE and Western blotting. […] Release of 7-amino-4-methyl coumarin was measured after 10, 20 or 30 minutes. […] At different times the cells were washed, fixed in 0.05 % glutaraldehyde and antigen presentation measured using proliferation of different autologous TTCF-specific T cell clones. c, AEP pre-processing of TTCF speeds antigen presentation. […] Presentation was measured after 60 minutes of antigen pulsing using EBV B cells. […]

C[C@H](NC(=O)OCC1c2ccccc2-c2ccccc21)C(=O)N[C@@H](CCC(=O)O)C(=O)N[C@@H](CCC(N)=O)C(=O)N[C@@H](CCCCN)C(N)=O [AEQK] (Fmoc-AEQK-NH2)
inhibition of processing of TTCF by AEP [1]: did not inhibit | presentation to most clones (eg AK 5, 90 & 6) at early times [2]: detectable | antigen presentation by EBV-B cells [3]: virtually no effect
